Tests used:
Type in all cases: functional
SNB-19 = experiment: Growth inhibition of human SNB19 cells incubated for 48 hrs by sulforhodamine B assay; conditions: SNB-19, 48 h
EKVX = experiment: Growth inhibition of human EKVX cells incubated for 48 hrs by sulforhodamine B assay
SF-539 = experiment: Growth inhibition of human SF539 cells incubated for 48 hrs by sulforhodamine B assay; conditions: SF-539, 48 h
HOP-62 = experiment: Growth inhibition of human HOP62 cells incubated for 48 hrs by sulforhodamine B assay; conditions: HOP-62, 48 h
HCC 2998 = experiment: Growth inhibition of human HCC2998 cells incubated for 48 hrs by sulforhodamine B assay; conditions: HCC 2998, 48 h
M14 = experiment: Growth inhibition of human M14 cells incubated for 48 hrs by sulforhodamine B assay; conditions: M14, 48 h
SF-268 = experiment: Growth inhibition of human SF268 cells incubated for 48 hrs by sulforhodamine B assay; conditions: SF-268, 48 h
NCI-H226 = experiment: Growth inhibition of human NCI-H226 cells incubated for 48 hrs by sulforhodamine B assay; conditions: NCI-H226, 48 h
SR = experiment: Growth inhibition of human SR cells incubated for 48 hrs by sulforhodamine B assay
K562 = experiment: Growth inhibition of human K562 cells incubated for 48 hrs by sulforhodamine B assay; conditions: K562, 48 h
OVCAR-5 = experiment: Growth inhibition of human OVCAR5 cells incubated for 48 hrs by sulforhodamine B assay; conditions: OVCAR-5, 48 h
U-251 = experiment: Growth inhibition of human U251 cells incubated for 48 hrs by sulforhodamine B assay; conditions: U-251, 48 h
BT-549 = experiment: Growth inhibition of human BT549 cells incubated for 48 hrs by sulforhodamine B assay; conditions: BT-549, 48 h
IGROV-1 = experiment: Growth inhibition of human IGROV1 cells incubated for 48 hrs by sulforhodamine B assay; conditions: IGROV-1, 48 h
HL-60(TB) = experiment: Growth inhibition of human HL-60(TB) cells incubated for 48 hrs by sulforhodamine B assay; conditions: HL-60, 48 h
MDA-MB-231 = experiment: Growth inhibition of human MDA-MB-231 cells incubated for 48 hrs by sulforhodamine B assay; conditions: MDA-MB-231, 48 h
MDA-MB-435 = experiment: Growth inhibition of human MDA-MB-435 cells incubated for 48 hrs by sulforhodamine B assay; conditions: MDA-MB-435, 48 h
786-0 = experiment: Growth inhibition of human 786-0 cells incubated for 48 hrs by sulforhodamine B assay; conditions: 786-0, 48 h
UO-31 = experiment: Growth inhibition of human UO31 cells incubated for 48 hrs by sulforhodamine B assay; conditions: UO-31, 48 h
SW-620 = experiment: Growth inhibition of human SW620 cells incubated for 48 hrs by sulforhodamine B assay; conditions: SW-620, 48 h
RPMI-8226 = experiment: Growth inhibition of human RPMI8226 cells incubated for 48 hrs by sulforhodamine B assay; conditions: RPMI-8226, 48 h
DU-145 = experiment: Growth inhibition of human DU145 cells incubated for 48 hrs by sulforhodamine B assay; conditions: DU-145, 48 h
CAKI-1 = experiment: Growth inhibition of human Caki1 cells incubated for 48 hrs by sulforhodamine B assay; conditions: CAKI-1, 48 h
OVCAR-3 = experiment: Growth inhibition of human OVCAR3 cells incubated for 48 hrs by sulforhodamine B assay; conditions: OVCAR-3, 48 h
LOX IMVI = experiment: Growth inhibition of human LOXIMVI cells incubated for 48 hrs by sulforhodamine B assay
SK-MEL-5 = experiment: Growth inhibition of human SK-MEL-5 cells incubated for 48 hrs by sulforhodamine B assay; conditions: SK-MEL-5, 48 h
HT-29 = experiment: Growth inhibition of human HT-29 cells incubated for 48 hrs by sulforhodamine B assay; conditions: HT-29, 48 h
SK-MEL-2 = experiment: Growth inhibition of human SK-MEL-2 cells incubated for 48 hrs by sulforhodamine B assay; conditions: SK-MEL-2, 48 h
PC-3 = experiment: Growth inhibition of human PC3 cells incubated for 48 hrs by sulforhodamine B assay; conditions: PC-3, 48 h
Malme-3M = experiment: Growth inhibition of human MALME-3M cells incubated for 48 hrs by sulforhodamine B assay
MDA-MB-468 = experiment: Growth inhibition of human MDA-MB-468 cells incubated for 48 hrs by sulforhodamine B assay; conditions: MDA-MB-468, 48 h
A498 = experiment: Growth inhibition of human A498 cells incubated for 48 hrs by sulforhodamine B assay; conditions: A498, 48 h
SK-OV-3 = experiment: Growth inhibition of human SKOV3 cells incubated for 48 hrs by sulforhodamine B assay; conditions: SK-OV-3, 48 h
SK-MEL-28 = experiment: Growth inhibition of human SK-MEL-28 cells incubated for 48 hrs by sulforhodamine B assay; conditions: SK-MEL-28, 48 h
CCRF-CEM = experiment: Growth inhibition of human CCRF-CEM cells incubated for 48 hrs by sulforhodamine B assay
Hs-578T = experiment: Growth inhibition of human Hs578T cells incubated for 48 hrs by sulforhodamine B assay
MOLT-4 = experiment: Growth inhibition of human MOLT4 cells incubated for 48 hrs by sulforhodamine B assay; conditions: MOLT-4, 48 h
NCI-H23 = experiment: Growth inhibition of human NCI-H23 cells incubated for 48 hrs by sulforhodamine B assay; conditions: NCI-H23, 48 h
NCI/ADR-RES = experiment: Growth inhibition of human NCI/ADR-RES cells incubated for 48 hrs by sulforhodamine B assay
OVCAR-8 = experiment: Growth inhibition of human OVCAR8 cells incubated for 48 hrs by sulforhodamine B assay; conditions: OVCAR-8, 48 h
KM12 = experiment: Growth inhibition of human KM12 cells incubated for 48 hrs by sulforhodamine B assay; conditions: KM12, 48 h
MCF7 = experiment: Growth inhibition of human MCF7 cells incubated for 48 hrs by sulforhodamine B assay; conditions: MCF7, 48 h
NCI-H322M = experiment: Growth inhibition of human NCI-H322M cells incubated for 48 hrs by sulforhodamine B assay
NCI-H460 = experiment: Growth inhibition of human NCI-H460 cells incubated for 48 hrs by sulforhodamine B assay; conditions: NCI-H460, 48 h
HOP-92 = experiment: Growth inhibition of human HOP92 cells incubated for 48 hrs by sulforhodamine B assay; conditions: HOP-92, 48 h
SN12C = experiment: Growth inhibition of human SN12C cells incubated for 48 hrs by sulforhodamine B assay
UACC-62 = experiment: Growth inhibition of human UACC62 cells incubated for 48 hrs by sulforhodamine B assay; conditions: UACC-62, 48 h
HCT-116 = experiment: Growth inhibition of human HCT116 cells incubated for 48 hrs by sulforhodamine B assay; conditions: HCT-116, 48 h
OVCAR-4 = experiment: Growth inhibition of human OVCAR4 cells incubated for 48 hrs by sulforhodamine B assay; conditions: OVCAR-4, 48 h
HCT-15 = experiment: Growth inhibition of human HCT15 cells incubated for 48 hrs by sulforhodamine B assay; conditions: HCT-15, 48 h
TK-10 = experiment: Growth inhibition of human TK10 cells incubated for 48 hrs by sulforhodamine B assay; conditions: TK-10, 48 h
SNB-75 = experiment: Growth inhibition of human SNB75 cells incubated for 48 hrs by sulforhodamine B assay; conditions: SNB-75, 48 h
SF-295 = experiment: Growth inhibition of human SF295 cells incubated for 48 hrs by sulforhodamine B assay; conditions: SF-295, 48 h
NCI-H522 = experiment: Growth inhibition of human NCI-H522 cells incubated for 48 hrs by sulforhodamine B assay; conditions: NCI-H522, 48 h
ACHN = experiment: Growth inhibition of human ACHN cells incubated for 48 hrs by sulforhodamine B assay
COLO 205 = experiment: Growth inhibition of human COLO205 cells incubated for 48 hrs by sulforhodamine B assay; conditions: COLO 205, 48 h
A549 = experiment: Growth inhibition of human A549/ATCC cells incubated for 48 hrs by sulforhodamine B assay; conditions: A549, 48 h
RXF 393 = experiment: Growth inhibition of human RXF393 cells incubated for 48 hrs by sulforhodamine B assay; conditions: RXF 393, 48 h

`CC(=O)O[C@H]1C(=O)[C@@]2(C)[C@H]([C@H](OC(=O)c3ccccc3)[C@]3(O)C[C@H](OC(=O)[C@H](O)[C@@H](NC(=O)c4ccccc4)c4ccccc4)C(C)=C1C3(C)C)[C@]1(OC(C)=O)CO[C@@H]1C[C@@H]2O` [PACLITAXEL] gave a GI50 (SNB-19) of 10 nM, a GI50 (EKVX) of 79 nM and a GI50 (SF-539) of 5 nM. The GI50 (HOP-62) was 19 nM, the GI50 (HCC 2998) was 1 nM and the GI50 (M14) was 5 nM. For the same molecule, the GI50 (SF-268) was 5 nM, the GI50 (NCI-H226) was 3.9 nM and the GI50 (SR) was 6.3 nM. The GI50 (K562) was 6.3 nM, the GI50 (OVCAR-5) was 7.9 nM and the GI50 (U-251) was 6.3 nM. It also gave a GI50 (BT-549) of 4 nM, a GI50 (IGROV-1) of 6.3 nM and a GI50 (HL-60(TB)) of 4 nM. The GI50 (MDA-MB-231) was 12.5 nM, the GI50 (MDA-MB-435) was 4 nM and the GI50 (786-0) was 39 nM. It also gave a GI50 (UO-31) of 125 nM, a GI50 (SW-620) of 4 nM and a GI50 (RPMI-8226) of 19.9 nM. The GI50 (DU-145) was 6.3 nM, the GI50 (CAKI-1) was 158 nM and the GI50 (OVCAR-3) was 4 nM. For the same molecule, the GI50 (LOX IMVI) was 5 nM, the GI50 (SK-MEL-5) was 5 nM and the GI50 (HT-29) was 5 nM. For the same molecule, the GI50 (SK-MEL-2) was 400 nM, the GI50 (PC-3) was 6.3 nM and the GI50 (Malme-3M) was 50 nM. It also gave a GI50 (MDA-MB-468) of 12.5 nM, a GI50 (A498) of 7.9 nM and a GI50 (SK-OV-3) of 6.3 nM. For the same molecule, the GI50 (SK-MEL-28) was 400 nM, the GI50 (CCRF-CEM) was 5 nM and the GI50 (Hs-578T) was 5 nM. For the same molecule, the GI50 (MOLT-4) was 5 nM, the GI50 (NCI-H23) was 6.3 nM and the GI50 (NCI/ADR-RES) was 630 nM. For the same molecule, the GI50 (OVCAR-8) was 7.9 nM, the GI50 (KM12) was 5 nM and the GI50 (MCF7) was 4 nM. The GI50 (NCI-H322M) was 12.5 nM, the GI50 (NCI-H460) was 6.3 nM and the GI50 (HOP-92) was 25 nM. It also gave a GI50 (SN12C) of 6.3 nM, a GI50 (UACC-62) of 5 nM and a GI50 (HCT-116) of 4 nM. It also gave a GI50 (OVCAR-4) of 630 nM, a GI50 (HCT-15) of 125 nM and a GI50 (TK-10) of 19.9 nM. The GI50 (SNB-75) was 7.9 nM, the GI50 (SF-295) was 25 nM and the GI50 (NCI-H522) was 15.8 nM. It also gave a GI50 (ACHN) of 158 nM, a GI50 (COLO 205) of 7.9 nM and a GI50 (A549) of 6.3 nM. For the same molecule, the GI50 (RXF 393) was 15.8 nM.

— ChEMBL document CHEMBL4219224, “Structure based drug design and in vitro metabolism study: Discovery of N-(4-methylthiophenyl)-N,2-dimethyl-cyclopenta[d]pyrimidine as a potent microtubule targeting agent” (Bioorg Med Chem, 2018)
